# Reference: patent US11998516B2, “Methods and compositions for treating depression using cyclobenzaprine” (TONIX PHARMA HOLDINGS LIMITED, priority 2011, dated 2024)
# Experiments:
# [1] = tested on: patients with fibromyalgia
# Procedure: Hospital Anxiety and Depression Scale (HAD). The Hospital Anxiety and Depression Scale (HAD) is a widely used patient self-rated scale with 14 questions (7 “anxiety” and 7 “depression” questions) that ranges from 0-42.
# The HAD Depression Subscale score was also analyzed.
# fibromyalgia patients = settings: 10 to 40 mg over a 12-week period; cited from earlier work
# [2] = 1-4 mg at bedtime, week 8, p=0.012
# [3] = 1-4 mg at bedtime, week 8, p=0.017
compound,measurement,setting,value
"CN(C)CCC=C1c2ccccc2C=Cc2ccccc21 [cyclobenzaprine, 3-(5H-dibenzo[a,d]cyclohepten-5-ylidene)-N,N-dimethyl-1-propanamine]",HAD depression subscale at week 8,"[1]; 1-4 mg at bedtime, week 8",4.9
same,"decrease (improvement) of HAD score, baseline to week 8",[1]; [2],3.3
same,"percent decrease of HAD score, baseline to week 8",[1]; [2],24.1%
same,"decrease (improvement) of HAD depression subscale, baseline to week 8",[1]; [3],1.4
same,"percent decrease of HAD depression subscale, baseline to week 8",[1]; [3],22.2%
same,HAD score at week 8,"[1]; 1-4 mg at bedtime, week 8, scale range 0-42",10.4
same,HAD depression subscale at baseline,"[1]; fibromyalgia patients, before treatment",6.3
same,HAD score at baseline,"[1]; fibromyalgia patients, before treatment, scale range 0-42",13.7
same,comparison of change from baseline in HAD scale versus placebo,"[1]; week 8, VLD CBP vs placebo groups",did not reveal a significant effect
same,comparison of change from baseline in HAD Depression subscore versus placebo,"[1]; week 8, VLD CBP vs placebo groups, p=0.023",significant improvement
same,muscle tightness,fibromyalgia patients,reduction
same,pain score,fibromyalgia patients,significantly improved
same,quality of sleep,fibromyalgia patients,significantly improved
same,total number of tender points,fibromyalgia patients,reduction
